Calls of active or inactive are those of the source. The calls are words filed in the database; no cut-off is given here.
Legend:
MV4-11 [1] = test: Cytotoxicity in human MV4-11 cells assessed as induction of cell death at 10 uM incubated for 72 hrs by CellTiter-Blue assay; format: functional
MV4-11 [2] = test: cells; settings: Homo sapiens, MV4-11, 72 h
[3] = target: Receptor-type tyrosine-protein kinase FLT3 (Homo sapiens, UniProt P36888, D835V/ITD)
[4] = test system: T1, Receptor-type tyrosine-protein kinase FLT3 (Homo sapiens), P36888 [D835Y]; test: Inhibition of human FLT3 D835Y mutant expressed in baculovirus expression system at 100 nM relative to control
T1 sequence (whole entry): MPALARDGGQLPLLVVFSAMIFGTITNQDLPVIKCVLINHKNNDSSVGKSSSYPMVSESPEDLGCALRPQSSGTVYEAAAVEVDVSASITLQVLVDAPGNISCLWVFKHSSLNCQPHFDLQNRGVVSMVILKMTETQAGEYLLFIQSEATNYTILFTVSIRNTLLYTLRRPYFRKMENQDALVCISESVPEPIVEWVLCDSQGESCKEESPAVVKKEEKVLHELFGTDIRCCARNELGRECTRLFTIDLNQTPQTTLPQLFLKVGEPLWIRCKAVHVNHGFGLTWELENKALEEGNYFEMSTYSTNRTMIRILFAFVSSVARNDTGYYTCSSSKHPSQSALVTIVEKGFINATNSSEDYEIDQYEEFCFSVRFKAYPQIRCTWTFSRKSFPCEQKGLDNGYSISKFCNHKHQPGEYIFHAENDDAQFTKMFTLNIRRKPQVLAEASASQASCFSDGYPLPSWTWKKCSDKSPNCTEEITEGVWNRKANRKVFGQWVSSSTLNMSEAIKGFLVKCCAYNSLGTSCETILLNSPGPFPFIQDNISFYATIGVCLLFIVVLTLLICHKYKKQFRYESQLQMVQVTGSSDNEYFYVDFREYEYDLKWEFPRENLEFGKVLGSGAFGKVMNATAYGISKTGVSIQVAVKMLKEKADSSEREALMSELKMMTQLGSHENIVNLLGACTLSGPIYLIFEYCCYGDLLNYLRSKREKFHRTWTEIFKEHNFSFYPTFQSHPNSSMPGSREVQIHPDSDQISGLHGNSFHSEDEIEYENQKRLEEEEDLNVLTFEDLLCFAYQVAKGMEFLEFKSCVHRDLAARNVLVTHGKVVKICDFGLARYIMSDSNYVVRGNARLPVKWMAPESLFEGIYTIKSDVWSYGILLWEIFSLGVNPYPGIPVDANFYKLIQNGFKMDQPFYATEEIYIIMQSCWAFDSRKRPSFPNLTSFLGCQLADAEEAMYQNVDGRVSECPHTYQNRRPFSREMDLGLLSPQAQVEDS

[5] = test system: T1, Receptor-type tyrosine-protein kinase FLT3 (Homo sapiens), P36888 [D835Y]; test: Inhibition of recombinant human FLT3 D835Y mutant (571 to 993 residues) expressed in baculovirus expression system at 100 nM preincubated for 24 hrs in presence of 1000 fold glutathione followed by myelobasic protein addition and measured after 120 mins relative to control
[6] = target: Glycogen synthase kinase-3 beta (Homo sapiens) (UniProt P49841); test: Inhibition of human N-terminal His-tagged GSK3beta expressed in baculovirus expression system assessed as residual activity at 100 nM relative to control
[7] = target: Platelet-derived growth factor receptor alpha (Homo sapiens) (UniProt P16234); test: Inhibition of full length human N-terminal 6His-tagged PDGFRalpha expressed in baculovirus expression system at 100 nM relative to control
[8] = target: Mitogen-activated protein kinase 3 (Homo sapiens) (UniProt P27361); test: Inhibition of full length N-terminal GST-tagged human ERK1 expressed in baculovirus expression system assessed as residual activity at 100 nM relative to control
[9] = target: Platelet-derived growth factor receptor beta (Homo sapiens) (UniProt P09619); test: Inhibition of full length human N-terminal GST-tagged PDGFRbeta expressed in baculovirus expression system at 100 nM relative to control
[10] = target: T2, Receptor-type tyrosine-protein kinase FLT3 (Homo sapiens, UniProt P36888)
[11] = target: Mitogen-activated protein kinase 1 (Homo sapiens) (UniProt P28482); test: Inhibition of human N-terminal GST-tagged ERK2 (14 to 429 residues) expressed in baculovirus expression system assessed as residual activity at 100 nM relative to control
[12] = target: Tyrosine-protein kinase Lyn (Homo sapiens) (UniProt P07948); test: Inhibition of full length human N-terminal 6His-tagged LYN expressed in baculovirus expression system at 100 nM relative to control
[13] = target: Receptor-type tyrosine-protein kinase FLT3 (Homo sapiens, UniProt P36888, ITD)
Jurkat = test: cells; settings: Homo sapiens, 72 h
[14] = target: Tyrosine-protein kinase Lck (Homo sapiens) (UniProt P06239); test: Inhibition of full length human N-terminal 6His-tagged LCK expressed in baculovirus expression system at 100 nM relative to control
[15] = target: Glycogen synthase kinase-3 alpha (Homo sapiens) (UniProt P49840); test: Inhibition of human N-terminal His-tagged GSK3alpha expressed in baculovirus expression system assessed as residual activity at 100 nM relative to control
[16] = target: Receptor-type tyrosine-protein kinase FLT3 (Homo sapiens, UniProt P36888, D835H)
[17] = test system: T1, Receptor-type tyrosine-protein kinase FLT3 (Homo sapiens), P36888 [D835Y]; test: Inhibition of recombinant human FLT3 D835Y mutant (571 to 993 residues) expressed in baculovirus expression system at 100 nM preincubated for 30 mins in presence of 1000 fold glutathione followed by myelobasic protein addition and measured after 120 mins relative to control
THP-1 = test: cells; settings: Homo sapiens, THP-1, 72 h
[18] = target: Receptor-type tyrosine-protein kinase FLT3 (Homo sapiens) (UniProt P36888); test: Inhibition of human N-terminal GST-tagged FLT3 expressed in baculovirus expression system at 100 nM relative to control
[19] = target: Proto-oncogene tyrosine-protein kinase receptor Ret (Homo sapiens) (UniProt P07949); test: Inhibition of full length human N-terminal GST-tagged RET expressed in baculovirus expression system at 100 nM relative to control
[20] = target: Receptor-type tyrosine-protein kinase FLT3 (Homo sapiens, UniProt P36888, D835Y); test: Irreversible inhibition of recombinant human FLT3 D835Y mutant (571 to 993 residues) expressed in baculovirus expression system preincubated for 5 to 30 mins followed by myelobasic protein addition measured after 120 mins in presence of ATP by ADP-Glo assay
[21] = target: Tyrosine-protein kinase receptor UFO (Homo sapiens) (UniProt P30530); test: Inhibition of full length human N-terminal 6His-tagged AXL expressed in baculovirus expression system at 100 nM relative to control
[22] = test system: T1, Receptor-type tyrosine-protein kinase FLT3 (Homo sapiens), P36888 [D835Y]; test: Inhibition of covalent binding of 100 uM (Z)-N-(2-(2-(4-(2,8-Diethyl-5,5-difluoro-1,3,7,9-tetramethyl-5H-4lambda4,5lambda4-dipyrrolo[1,2-c:2',1'-f ][1,3,2]diazaborinin-10-yl)phenoxy)-acetamido)ethyl)-2,4-dimethyl-5-((2-oxo-5-(vinylsulfon-amido)-indolin-3-ylidene)methyl)-1H-pyrrole-3-carboxamide to recombinant human FLT3 D835Y mutant (571 to 993 residues) expressed in baculovirus expression system at 100 uM by Western blot analysis
[23] = target: T2, Receptor-type tyrosine-protein kinase FLT3; test: Binding affinity to auto-inhibited form of wild type human N-terminal GST-tagged FLT3 expressed in baculovirus expression
MOLM-14 = test: cells; settings: Homo sapiens, MOLM-14, 72 h
[24] = target: Interleukin-1 receptor-associated kinase 1 (Homo sapiens) (UniProt P51617); test: Inhibition of full length human N-terminal 6His-tagged IRAK1 expressed in baculovirus expression system at 100 nM relative to control
[25] = target: Mast/stem cell growth factor receptor Kit (Homo sapiens) (UniProt P10721); test: Inhibition of human N-terminal GST-tagged c-KIT expressed in baculovirus expression system at 100 nM relative to control
Mast/stem cell growth factor receptor Kit (Homo sapiens), sequence (P10721 whole entry): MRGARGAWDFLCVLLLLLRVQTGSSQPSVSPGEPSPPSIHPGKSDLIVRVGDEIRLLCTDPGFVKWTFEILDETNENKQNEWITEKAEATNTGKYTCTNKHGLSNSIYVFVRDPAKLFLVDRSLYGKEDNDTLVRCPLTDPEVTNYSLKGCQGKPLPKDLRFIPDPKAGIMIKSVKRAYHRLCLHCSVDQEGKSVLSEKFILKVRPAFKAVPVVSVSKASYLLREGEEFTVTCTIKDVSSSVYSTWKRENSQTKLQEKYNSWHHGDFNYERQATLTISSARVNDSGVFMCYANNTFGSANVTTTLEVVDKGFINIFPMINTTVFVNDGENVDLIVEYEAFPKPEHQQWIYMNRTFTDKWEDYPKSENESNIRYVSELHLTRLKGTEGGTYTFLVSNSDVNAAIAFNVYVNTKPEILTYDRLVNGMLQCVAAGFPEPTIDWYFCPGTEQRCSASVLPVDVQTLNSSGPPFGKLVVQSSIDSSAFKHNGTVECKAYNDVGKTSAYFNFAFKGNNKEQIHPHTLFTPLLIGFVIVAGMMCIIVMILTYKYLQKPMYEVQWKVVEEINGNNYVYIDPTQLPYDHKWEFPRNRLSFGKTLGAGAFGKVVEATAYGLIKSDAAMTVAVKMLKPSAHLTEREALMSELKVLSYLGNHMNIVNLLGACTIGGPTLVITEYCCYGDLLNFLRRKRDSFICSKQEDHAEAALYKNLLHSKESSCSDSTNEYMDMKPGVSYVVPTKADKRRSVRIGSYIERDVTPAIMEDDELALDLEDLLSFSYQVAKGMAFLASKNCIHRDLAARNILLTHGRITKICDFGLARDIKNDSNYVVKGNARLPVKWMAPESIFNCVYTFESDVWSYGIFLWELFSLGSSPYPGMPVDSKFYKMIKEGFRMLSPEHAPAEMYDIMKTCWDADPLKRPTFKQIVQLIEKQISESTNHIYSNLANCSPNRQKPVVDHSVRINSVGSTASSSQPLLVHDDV

Mitogen-activated protein kinase 3 (Homo sapiens), sequence (P27361 whole entry): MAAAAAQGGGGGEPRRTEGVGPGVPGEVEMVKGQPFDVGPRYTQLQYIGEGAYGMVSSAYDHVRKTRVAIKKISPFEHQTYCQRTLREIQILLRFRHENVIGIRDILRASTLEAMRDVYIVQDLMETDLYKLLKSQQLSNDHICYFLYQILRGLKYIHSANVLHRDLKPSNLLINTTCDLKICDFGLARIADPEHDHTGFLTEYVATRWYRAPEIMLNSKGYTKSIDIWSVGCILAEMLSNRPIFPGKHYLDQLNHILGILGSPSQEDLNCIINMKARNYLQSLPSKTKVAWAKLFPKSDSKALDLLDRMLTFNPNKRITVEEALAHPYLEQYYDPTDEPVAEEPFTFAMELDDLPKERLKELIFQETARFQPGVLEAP
Proto-oncogene tyrosine-protein kinase receptor Ret (Homo sapiens), sequence (P07949 whole entry, the tested form may be a part): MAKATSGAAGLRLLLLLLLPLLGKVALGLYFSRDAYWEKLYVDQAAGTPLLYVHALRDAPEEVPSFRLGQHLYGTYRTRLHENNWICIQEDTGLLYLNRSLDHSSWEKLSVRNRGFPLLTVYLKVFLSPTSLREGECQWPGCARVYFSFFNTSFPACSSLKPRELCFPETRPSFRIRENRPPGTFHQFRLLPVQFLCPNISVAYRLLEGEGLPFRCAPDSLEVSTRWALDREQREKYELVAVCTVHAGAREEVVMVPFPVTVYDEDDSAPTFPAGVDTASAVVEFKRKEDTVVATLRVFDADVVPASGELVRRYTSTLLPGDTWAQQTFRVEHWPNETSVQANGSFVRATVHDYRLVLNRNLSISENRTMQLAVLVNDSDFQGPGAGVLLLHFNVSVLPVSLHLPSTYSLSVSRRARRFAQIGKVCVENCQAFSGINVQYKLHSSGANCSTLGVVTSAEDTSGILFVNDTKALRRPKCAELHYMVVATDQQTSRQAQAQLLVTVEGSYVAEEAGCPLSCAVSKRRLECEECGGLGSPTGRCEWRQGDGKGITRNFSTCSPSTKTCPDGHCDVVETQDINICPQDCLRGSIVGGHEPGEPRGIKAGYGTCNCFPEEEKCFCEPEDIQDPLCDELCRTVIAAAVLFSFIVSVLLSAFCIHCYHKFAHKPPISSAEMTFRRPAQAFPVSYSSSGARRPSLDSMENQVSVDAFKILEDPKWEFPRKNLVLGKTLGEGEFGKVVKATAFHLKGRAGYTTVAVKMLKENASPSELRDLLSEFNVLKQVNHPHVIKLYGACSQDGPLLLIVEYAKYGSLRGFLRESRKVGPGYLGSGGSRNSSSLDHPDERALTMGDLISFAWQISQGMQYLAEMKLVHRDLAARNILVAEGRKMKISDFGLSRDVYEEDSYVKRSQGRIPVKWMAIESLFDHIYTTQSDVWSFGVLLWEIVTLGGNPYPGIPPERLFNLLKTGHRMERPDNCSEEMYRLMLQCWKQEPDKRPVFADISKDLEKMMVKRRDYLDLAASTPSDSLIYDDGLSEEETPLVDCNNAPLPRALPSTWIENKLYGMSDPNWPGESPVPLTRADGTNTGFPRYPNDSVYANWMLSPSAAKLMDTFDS
Platelet-derived growth factor receptor beta (Homo sapiens), sequence (P09619 whole entry): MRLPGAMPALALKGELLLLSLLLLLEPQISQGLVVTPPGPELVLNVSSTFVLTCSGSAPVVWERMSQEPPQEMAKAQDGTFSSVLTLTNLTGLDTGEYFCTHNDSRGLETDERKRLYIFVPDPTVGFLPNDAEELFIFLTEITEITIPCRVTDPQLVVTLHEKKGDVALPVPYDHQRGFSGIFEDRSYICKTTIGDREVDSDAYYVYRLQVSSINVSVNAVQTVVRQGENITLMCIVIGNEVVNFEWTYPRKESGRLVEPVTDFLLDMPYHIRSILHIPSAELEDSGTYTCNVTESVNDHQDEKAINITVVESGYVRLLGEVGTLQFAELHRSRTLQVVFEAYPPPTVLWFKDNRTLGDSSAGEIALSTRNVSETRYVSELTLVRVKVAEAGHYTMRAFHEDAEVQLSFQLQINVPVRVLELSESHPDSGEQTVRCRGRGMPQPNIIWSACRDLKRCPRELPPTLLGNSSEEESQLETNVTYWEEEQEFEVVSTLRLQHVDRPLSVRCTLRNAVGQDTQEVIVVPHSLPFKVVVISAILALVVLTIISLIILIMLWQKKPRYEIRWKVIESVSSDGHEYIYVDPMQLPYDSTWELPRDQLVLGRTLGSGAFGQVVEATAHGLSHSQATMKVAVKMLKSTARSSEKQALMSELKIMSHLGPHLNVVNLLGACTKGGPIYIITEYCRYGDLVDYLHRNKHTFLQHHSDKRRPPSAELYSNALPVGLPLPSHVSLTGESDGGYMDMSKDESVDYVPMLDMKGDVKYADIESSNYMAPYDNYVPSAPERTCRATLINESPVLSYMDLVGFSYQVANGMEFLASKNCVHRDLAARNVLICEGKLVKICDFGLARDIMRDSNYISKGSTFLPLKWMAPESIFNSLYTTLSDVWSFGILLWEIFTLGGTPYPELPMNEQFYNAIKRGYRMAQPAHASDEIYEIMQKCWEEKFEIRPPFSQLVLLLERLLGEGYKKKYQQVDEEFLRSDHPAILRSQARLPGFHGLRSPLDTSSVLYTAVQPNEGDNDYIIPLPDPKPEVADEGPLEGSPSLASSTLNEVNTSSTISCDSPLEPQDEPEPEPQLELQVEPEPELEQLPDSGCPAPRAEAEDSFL
Tyrosine-protein kinase receptor UFO (Homo sapiens), sequence (P30530 whole entry, the tested form may be a part): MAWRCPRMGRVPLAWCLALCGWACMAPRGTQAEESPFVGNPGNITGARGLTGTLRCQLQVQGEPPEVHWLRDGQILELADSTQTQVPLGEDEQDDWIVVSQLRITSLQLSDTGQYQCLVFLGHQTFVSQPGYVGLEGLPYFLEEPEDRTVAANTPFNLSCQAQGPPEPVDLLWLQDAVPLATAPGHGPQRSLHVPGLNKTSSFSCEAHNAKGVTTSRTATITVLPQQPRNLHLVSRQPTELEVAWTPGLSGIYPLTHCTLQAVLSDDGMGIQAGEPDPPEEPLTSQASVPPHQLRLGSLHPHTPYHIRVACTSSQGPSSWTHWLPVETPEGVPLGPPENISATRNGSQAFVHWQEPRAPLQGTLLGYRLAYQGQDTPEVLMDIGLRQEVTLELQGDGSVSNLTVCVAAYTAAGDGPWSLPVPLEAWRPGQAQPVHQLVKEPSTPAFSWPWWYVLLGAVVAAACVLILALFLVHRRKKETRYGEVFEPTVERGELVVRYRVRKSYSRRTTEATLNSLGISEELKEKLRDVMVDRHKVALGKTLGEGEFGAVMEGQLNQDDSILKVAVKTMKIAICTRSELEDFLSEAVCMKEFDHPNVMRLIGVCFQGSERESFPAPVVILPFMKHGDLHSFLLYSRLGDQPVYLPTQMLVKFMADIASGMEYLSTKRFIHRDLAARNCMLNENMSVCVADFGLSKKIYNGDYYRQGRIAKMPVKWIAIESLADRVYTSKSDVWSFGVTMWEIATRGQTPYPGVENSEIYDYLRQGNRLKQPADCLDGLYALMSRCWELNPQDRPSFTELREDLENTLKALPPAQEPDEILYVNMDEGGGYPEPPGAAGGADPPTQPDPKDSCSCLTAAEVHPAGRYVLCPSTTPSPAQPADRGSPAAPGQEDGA
Mitogen-activated protein kinase 1 (Homo sapiens), sequence (P28482 whole entry, the tested form may be a part): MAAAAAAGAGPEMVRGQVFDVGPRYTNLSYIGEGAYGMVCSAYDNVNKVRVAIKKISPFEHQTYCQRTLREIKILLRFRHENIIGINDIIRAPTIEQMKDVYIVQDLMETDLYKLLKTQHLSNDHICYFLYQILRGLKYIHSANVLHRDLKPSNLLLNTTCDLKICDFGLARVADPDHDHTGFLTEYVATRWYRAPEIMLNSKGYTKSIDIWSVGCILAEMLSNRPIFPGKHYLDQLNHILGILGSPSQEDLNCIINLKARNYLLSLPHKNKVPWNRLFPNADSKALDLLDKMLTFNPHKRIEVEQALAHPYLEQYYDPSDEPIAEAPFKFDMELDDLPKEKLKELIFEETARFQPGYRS

Cc1cc(Nc2ccnc(Nc3ccccc3)n2)n[nH]1
Activity (MV4-11 [1]): 89% | IC50 (MV4-11 [2]): > 1 nM

C=CS(=O)(=O)Nc1ccc2c(c1)/C(=C/c1[nH]c(C)c(C(=O)NCCN(CC)CC)c1C)C(=O)N2
Kd [3]: 0.83 nM | inhibition [4]: 99% | inhibition [5]: 37% | inhibition [6]: inactive | inhibition [7]: 24% | inhibition [8]: inactive | inhibition [9]: 14% | Kd [10]: 2.3 nM | inhibition [11]: inactive | inhibition [12]: 81 to 93% | Kd [13]: 5.8 nM | IC50 (Jurkat): > 1000 nM | inhibition [14]: 81 to 93% | inhibition [15]: inactive | Kd [16]: 1.3 nM | inhibition [17]: 68% | IC50 (THP-1): > 1000 nM | inhibition [18]: 95% | inhibition [19]: 96% | Ki [20]: 1.98 nM | inhibition [21]: 81 to 93% | inhibition [22]: 28% | Kd [23]: 65 nM | IC50 (MOLM-14): 7.8 nM | inhibition [24]: 81 to 93% | inhibition [25]: 34% | IC50 (MV4-11 [2]): 6 nM
